Data set [1] in a line: log D7.4 by shake-flask method, n-octanol/buffered aqueous solution. The data set is classed as physicochemical. The note with it: partitioning, n-octanol/water, pH 7.4, read-out: log D7.4 (proligand). How it is done: Besides pKa values, lipophilicity is also an important pharmacological property of a drug, as it strongly influences the ability of the compound to pass through biological membranes. Therefore, distribution coefficients (log D7.4) were determined using the shake-flask method in an n-octanol-buffered aqueous solution at pH 7.4 (Table 1). The log D7.4 values indicate the moderate lipophilic character of the proligands. The substitution at the end nitrogen atom of the thosemicarbazide moiety and the presence of a methyl group at the Schiff base bond induce a somewhat higher lipophilicity. The presence of the phenolic moiety undoubtedly increases the log D7.4 values compared to those of FTSC (+0.73),[67]
The time-dependence of UV–vis absorption spectra was monitored for proligands HL2 at pH 7.4, 1.5 and 10.0 in 30% (v/v) DMSO/H2O, and for HL1 and HL3 at pH 7.4.
The redox reaction of the copper(II) complexes (25 µM) with GSH (1250 µM) was studied at 7.40 (50 mM HEPES buffer with 0.1 M KCl) and at 25.0 ± 0.1 °C on Hewlett Packard 8452A diode array spectrophotometer using a special, tightly closed tandem cuvette (Hellma Tandem Cell, 238-QS) as described previously.6,7 Calculation of the observed rate constants (kobs) of the redox reaction was performed by using a reported approach.6,7
Distribution coefficients (D7.4) values were determined by the traditional shake-flask method in n-octanol/buffered aqueous solution at pH 7.40 (50 mM HEPES buffer at 25.0 ± 0.2 °C as described previously in our previous work.8
2.4. Spectroelectrochemical studies
Cyclic voltammetry experiments with 0.5 mM solutions of Cu(II) complexes and corresponding ligands in 0.1 M n-Bu4NPF6 in both DMSO and methanol were performed under argon atmosphere using a three-electrode arrangement with glassy carbon 1 mm disc working electrode (from Ionode, Australia), platinum wire as counter electrode, and silver wire as pseudo -reference electrode. As a supporting e lectrolyte, 0.1 M n-Bu4NPF6 was used in DMSO (SeccoSolv max.
0.025% H2O, Merck) and 0.1 M LiClO4 (≥95.0%, Merck) in methanol. […]

For another data set, the system named is Colo320 cells. Description: Annexin-V-FITC/PI apoptosis induction assay (flow cytometry). It counts as cell-based, human. As to conditions: for Cell death % Q1 / Early apoptosis % Q3 / Late apoptosis and necrosis % Q2: 3 h induction. As for the experimental part: To gain further insights into the cytotoxic behavior of the compounds, apoptosis induction by lead compounds HL^1 and [Cu(L^2)Cl] was investigated by a flow cytometry analysis of multidrug-resistant Colo320 cells stained with Annexin-V-FITC and propidium iodide (PI).
Colo320 cells were treated at the indicated concentration of the drugs. The dual parametric dot plots that combine the Annexin-V (FL1) and PI (FL3) fluorescence show the viable cell population in the lower-left quadrant Annexin-V–/PI– (Q4), the early apoptotic cells in the lower-right quadrant Annexin-V+/PI– (Q3), and the late apoptotic and necrotic cells in the upper-right quadrant Annexin-V+/PI+ (Q2). […]
2.5.3. Mechanisms of cell death: assay for apoptosis induction
The assay was carried out for selected compounds using an Annexin V-FITC Apoptosis Detection
Kit (Cat. No. APOAF-50TST) from Sigma according to the manufacturer's instructions. The
concentration of the Colo320 cell suspension was adjusted to approximately 0.5 × 10^6 cells per
mL in RPMI medium and the cell suspension was distributed in 1 mL aliquots into a 24-well plate,
and then incubated overnight at 37 °C and 5% CO2. On the following day, the medium was
removed and replaced by 1 mL RPMI medium containing the compounds except the control
samples. Colo320 cells were incubated in the presence of the compounds at 4 and 8 μM (HL1), or
0.25 and 0.50 μM (Cu(HL2)Cl2) in the 24-well plate at 37 °C for 3 h, and 12H-
controls. After the incubation period the samples were washed with PBS and fresh RPMI medium
was added to the samples. The cells were incubated overnight at 37 °C and 5% CO2. The next day,
200 μL 0.25% Trypsin (Trypsin-Versen) was added to the samples until cells appeared detached
followed by the addition of 400 μL of RPMI medium supplemented with 10% bovine serum. The
cells were collected in Eppendorf tubes and centrifuged at 2000 g for 2 min. The harvested cells
were resuspended in fresh serum free RPMI medium culture medium. After this step, the apoptosis
assay was carried out according to the instructions of the manufacturer. The fluorescence was
analyzed immediately using a ParTec CyFlow flow cytometer (Partec GmbH, Münster, Germany). […]
On the technique in general: Flow cytometry measures light scatter and fluorescence of single cells or particles in a stream.

The test system of another data set is SW480 cells. Nature of the data set: Cell cycle distribution by flow cytometry. The data set is classed as cell-based, human. The note with it: 24 h. From the text:
[…] TEXT PRINTED IN THE PICTURE: (A) no label printed: S: 27.7% | (B) no label printed: S: 33.8% | (C) no label printed: S: 44.0% | (D) no label printed: S: 46.5% DOUBTS OF THE COPYIST ABOUT THIS PICTURE: No substance labels are printed in the picture, only the panel letters A-D. / The phase label "S" is printed only in panel A. Applying it to the percentages in panels B, C and D is assumed from where the marker line sits.

Data on three compounds can be found in paper PMC8335727 (Inorganic Chemistry, 2021).

Where “and” joins values, the source holds several entries; their conditions need not be identical. Identical values can stand only once.

Consider `Cc1cc(NC(=S)NN=Cc2ccccn2)cc(C)c1O` [HL^1, 2-Formylpyridine 4-(4-hydroxy-3,5-dimethylphenyl)thiosemicarbazone], for which the logD in data set [1] is 1.3. Further, in the data set on Colo320 cells (4 µM), the “Cell death % Q1” value is recorded as 2.79%; the “Early apoptosis % Q3” value is recorded as 6.19%; the “Late apoptosis and necrosis % Q2” value turned out to be 12.4%. In the data set on Colo320 cells (8 µM), the “Cell death % Q1” value was determined as 1.57%; the “Early apoptosis % Q3” value turned out to be 7.65%; the “Late apoptosis and necrosis % Q2” value was determined as 7.0%. Further, the viability at 4 µM with Colo320 cells (Homo sapiens, COLO 320, 4 μM, read-out: viable cell population Q4) amounted to 78.6%. In the data set with SW480 cells (1 µM), this compound had a G1 phase cells of 48.5%, a G2 phase cells of 19.4% and a S phase cells of 32.0%. Further, in the data set with SW480 cells (10 µM), the G0/G1 phase cells was 49.2% and 49.2 ± 1.6%; the G2/M phase cells was 12.3% and 12.3 ± 4.4%; the S phase cells was 37.1 ± 4.7%.
In the case of `CC(=NNC(=S)Nc1cc(C)c(O)c(C)c1)c1ccccn1` [HL^2, 2-Acetylpyridine 4-(4-hydroxy-3,5-dimethylphenyl)thiosemicarbazone], the logD in data set [1] was determined as 2.1.
On the same count and under the same terms, the figure for `Cc1cc(NC(=S)NN=Cc2ncccc2N)cc(C)c1O` [HL^3, 3-Amino-2-formylpyridine 4-(4-hydroxy-3,5-dimethylphenyl)thiosemicarbazone] is 1.67.
